According to patent US20120039917A1, “IMMUNO[…]” (priority 2008, published 2012):

Columns and labels:
[1] = test system: proliferating T cells; test: Cell viability measured by Trypan blue exclusion; format: cell-based, human; conditions: 10 μM PXD
Description: (§1) Immediately prior to experiments, frozen PBMC were thawed, centrifuged at 1400 rpm in a Multifuge 3 s (Heraeus) for 4 min, washed in RPMI+10% FCS and resuspended in T cell medium (RPMI+10% FCS+10 μM 2-mercaptoethanol (Sigma), 1×glutamine, 1×non-essential amino acids (Gibco)) at 2×10^6 cells/mL. Cells (2×10^5) were activated by adding 10 μg/mL anti-CD3 and 5 μg/mL anti-CD28 and 20 U/mL IL-2 per well. Cells were incubated at 37° C. in a humidified incubator maintained at 5% CO2 for 4 to 5 days until large numbers of large spherical aggregates or “bursts” of lymphocytes were observed. Activated proliferating T cells were pooled from the wells for further experiments. Resting T cells were incubated for the same length of time but in the presence of 20 U/mL IL-2 only.
(§2) Proliferating and resting PBMCs were centrifuged at 1400 rpm in a Multifuge 3 s (Heraeus) for 4 min at room temperature, resuspended in fresh T cell medium in 96 U-well plates (200 μL per well at densities of 2×10^6 cells/mL) in the presence of PXD or 0.1% DMSO and incubated in a 5% CO2, 37° C. humidified incubator. Viable cells, as determined by Trypan blue exclusion, were counted in a Neubauer haemocytometer every 24 h for several days.

[2] = test system: resting T cells; test: Cell viability measured by Trypan blue exclusion; format: cell-based, human; conditions: 10 μM PXD
Description: as §1, §2

Oc1ccc(C2=Cc3ccc(O)cc3OC2)cc1 [PXD, Isoflav-3-en-4′,7-diol]
viability (Trypan blue exclusion) [1]: severely compromised
viability (Trypan blue exclusion) [2]: remain viable
